Measured values reported in patent US4310348A, “Plant growth regulating compositions” (priority 1978, dated 1982).
“Also recorded” adds a separate entry of the source.

Columns and labels:
white rats = test: acute oral toxicity (LD50) on white rats; conditions: rat, in vivo
Source text: (§1) Therefore, the new compound of the formula (I) can be utilized to advantage as insecticidal agent for controlling granarial insect pests and insects attacking ornamental plants, indoor plants and vegetables.

cholinesterase = cholinesterase blocking effect; type: biochemical
[1] = system: dried bean beetle (Acanthoscelides obtectus); test: protection against dried bean beetle, procedure of Example 13(a) (Table 7); type: in vivo; conditions: compared with dichlorphon
Method: (§2) The emulsifiable concentrate described in Example 8 was diluted with water to a final active agent content of 3% by weight, and an amount corresponding to 2.5 mg of racemic active agent/cm^2 of plane area of the resulting spray liquid was filled into a cylindrical flask. 20 flies, anaesthetized with carbon dioxide, were placed in the flask, the flask was covered with a Petri dish, and the effect of the active agent was observed. In the control test the same dosage of dichlorphon (O,O-dimethyl-2,2-dichlorovinyl phosphate) was applied as active agent.
Protection against dried bean beetle (Acanthoscelides obtectus)

[2] = acute oral toxicity (LD50) on white rats; conditions: rat, in vivo; white rats, oral administration
Source text: as §1

Flax = test: greenhouse pre-emergent treatment, green weight, flax (Table 2); type: in vivo; conditions: 4-week-old plants
Method: (§3) (a2) Seeds of bean, carrot, flax, green pepper, tomato, spinach, barley and sorghum were sown into cultivation pots (20×20 cm) filled with sand. The cultivation pots were placed in a greenhouse, and treated prior to plant emergence with 0.1 or 0.2 kg of racemic active agent/hectare. The green weights of the 4-week-old plants were measured, and the data were compared to those observed with the untreated controls.

Carrot = test: greenhouse pre-emergent treatment, green weight, carrot (Table 2); type: in vivo; conditions: 4-week-old plants
Method: as §3

Spinach = test: greenhouse pre-emergent treatment, green weight, spinach (Table 2); type: in vivo; conditions: 0.1 kg/ha, 4-week-old plants
Method: as §3

[3] = system: dried bean beetle (Acanthoscelides obtectus); test: protection against dried bean beetle on treated bean seeds (Table 8); type: in vivo
Method: (b) 100 g of bean seeds each were treated with a spray liquid containing 1.0% by weight of racemic active agent (prepared by diluting an emulsifiable concentrate containing 50% by weight of active agent) in an amount corresponding to 250, 500 and 1000 ppm of active agent, respectively. The control seeds were not treated. The seeds were put into small cylindrical flasks. 20 insects each were placed in the flasks, and the flasks were covered with a cloth. After 14 days the survivors were counted.

Sorghum = test: greenhouse pre-emergent treatment, green weight, sorghum (Table 2); type: in vivo; conditions: 4-week-old plants
Method: as §3

Tomato = test: greenhouse pre-emergent treatment, green weight, tomato (Table 2); type: in vivo; conditions: 4-week-old plants
Method: as §3

corn [4] = test: open-air test on small parcels, pre- or post-emergent spraying of corn (Table 4); type: in vivo; conditions: for Ear yield / Green weight / Height: untreated = 100
Method: 10 parts by weight of (±)-2-(propargyloxyimino)-1,7,7-trimethyl-bicyclo[2,2,1]heptane are dissolved in 9 parts by weight of xylene, and 1 part by weight of a mixture of an anionic and a non-ionic surfactant (e.g. a 2:3 mixture of Atlox 3386 and Atlox 4851) is added to the solution. The mixture is homogenized. An emulsifiable concentrate containing 50% by weight of active agent (50 EC) is obtained, which can be diluted with water to form a spray liquid.
Corn seeds were sown in small (10×10 m) parcels, and the parcels were treated prior to or after plant emergence with an aqueous spray liquid prepared from the emulsifiable concentrate described in Example 8. The concentrate was diluted with rain water to a final active agent content of 0.02 to 0.1%, depending on the dosage applied, and 500 liters/hectare of the spray liquid were applied. The dosages examined in the pre-emergent treatments varied between […] of racemic active agent/hectare, whereas in the post-emergent treatment a dosage of 1 kg of racemic active agent/hectare was applied. The parcels were hoed in order to remove weeds.

Green pepper = test: greenhouse pre-emergent treatment, green weight, green pepper (Table 2); type: in vivo; conditions: 4-week-old plants
Method: as §3

corn [5] = test: open-air test on small parcels with dressed corn seeds (Table 3); type: in vivo
Method: (§4) 6 parts by weight of a 10% acetone solution of (±)-2-(propargyloxyimino)-1,7,7-trimethyl-bicyclo[2,2,1]heptane are added under stirring to a solution containing 30 parts by weight of acetone, 2.5 parts by weight of hydroxypropyl cellulose, 5 parts by weight of polyethylene glycol (molecular weight: 6000), 20 parts by weight of water and an arbitrary amount of a dyestuff having no germination-inhibiting effect.
(§5) (a1) Three cultivation pots were filled with sand, and 30 corn seeds each were sown. 10 of the seeds were not dressed (untreated controls), 10 of the seeds were dressed with a dressing agent described in Example 10 but containing no active agent (placebo), whereas the remaining 10 seeds were dressed with a dressing agent prepared according to Example 10 containing racemic active agent. The cultivation pots were placed in a greenhouse, and the temperature, light and atmospheric humidity of the greenhouse were maintained at optimum. The percentage of germinating seeds was determined, and on the 14th and 28th days after sowing the height and green weight of the emerged plants were measured. The results of the test are summarized in Table 1, in which the percentage of germination is related to the number of seeds sown, whereas the heights and green weights of the plants are given in percentages related to the untreated controls.
The procedure described in point (a) was repeated with the difference that the seeds were sown in a 10×10 m parcel, the plants were kept under observation for the whole growth season, and the crop yield was also determined. The parcel was hoed in order to remove weeds.

[6] = system: houseflies (Musca domestica); test: insecticidal activity, protection against houseflies (Table 5); conditions: in vivo
Method: as §2

Barley = test: greenhouse pre-emergent treatment, green weight, barley (Table 2); type: in vivo; conditions: 4-week-old plants
Method: as §3

Bean = test: greenhouse pre-emergent treatment, green weight, bean (Table 2); type: in vivo; conditions: 4-week-old plants
Method: as §3

corn [7] = test: greenhouse test, plant growth promoting effect on corn from dressed seeds (Table 1); type: in vivo
Method: as §4, §5

[8] = system: housefly (Musca domestica) larvae; test: insecticidal activity, protection against housefly larvae (Table 6); type: in vivo; conditions: for Development: in relation to the control
Method: 1 kg of wheat barn was admixed with 1 liter of milk, 10 g of fodder yeast and 6 g of Nipagin (ethyl p-hydroxybenzoate) to obtain a culture medium for the cultivation of housefly larvae. 200 g each of the above culture medium were put into small cylindrical flasks, and racemic active agent was added so that the active agent content of the culture medium was 250, 500 and 1000 ppm, respectively. The racemic active agent was introduced in the form of an emulsifiable concentrate containing 50% by weight of the compound concerned, and the culture medium was homogenized with the concentrate. No active agent was introduced into the control flask. 50 one-day-old housefly larvae each were placed in the cylindrical flasks, the flasks were covered with a cloth ensuring good ventilation, and the percentage of images developing from the pupae was determined in relation to the control.

[9] = post-emergent, 1.0 kg of active agent/hectare
[10] = pre-emergent, 0.1 kg of active agent/hectare
[11] = pre-emergent, 1.0 kg of active agent/hectare
[12] = pre-emergent, 3.0 kg of active agent/hectare
[13] = pre-emergent, 5.0 kg of active agent/hectare
[14] = dressed seeds, open air, untreated control = 100
[15] = 14th day after sowing, related to untreated controls
[16] = 28th day after sowing, related to untreated controls

## C#CCON=C1CC2CCC1(C)C2(C)C (racemic) [new compound of the formula (I), 2-(proparglyoxyimino)-1,7,7-trimethyl-bicyclo[2,2,1]heptane]
White rats
  toxicity (in words): low toxicity; also recorded: superior to the known active agent with respect to its lower toxicity
cholinesterase
  cholinesterase blocking effect: absence of cholinesterase blocking effect
[1]
  speed of effect on more resistant test insects (in words): slower on more resistant test insects

## C#CCON=C1CC2CCC1(C)C2(C)C (racemic) [racemic active agent, (±)-2-(propargyloxyimino)-1,7,7-trimethyl-bicyclo[2,2,1]heptane]
[2]
  LD50: 1400 mg/kg
Flax; 0.1 kg/ha
  Green weight in relation to the controls: 118%
Flax; 0.2 kg/ha
  Green weight in relation to the controls: 105%
Carrot; 0.1 kg/ha
  Green weight in relation to the controls: 105%
Carrot; 0.2 kg/ha
  Green weight in relation to the controls: 140%
Spinach
  Green weight in relation to the controls: 135%
[3]; Acanthoscelides obtectus, 336 h, 250 ppm, after 14 days, percentage of the control, read-out: Survivors
  survival at 250 ppm: 5%
[3]; Acanthoscelides obtectus, 336 h, 500 ppm, after 14 days, percentage of the control, read-out: Survivors
  survival at 500 ppm: 0%
[3]; Acanthoscelides obtectus, 336 h, 1000 ppm, after 14 days, percentage of the control, read-out: Survivors
  survival at 1000 ppm: 0%
[3]; even in a concentration of 250 ppm
  killing of granarial insect pests such as dried bean beetle (in words): can be applied successfully to kill granarial insect pests
Sorghum; 0.1 kg/ha
  Green weight in relation to the controls: 130%
Sorghum; 0.2 kg/ha
  Green weight in relation to the controls: 130%
Tomato; 0.1 kg/ha
  Green weight in relation to the controls: 120%
Tomato; 0.2 kg/ha
  Green weight in relation to the controls: 112%
Corn [4]; [9]
  Ear yield: 109%
  Green weight: 120%
  Height: 116%
Corn [4]; post-emergent, 1 kg/hectare
  post-emergent results compared with pre-emergent, same dosage (in words): slightly inferior to the former ones
Corn [4]; [10]
  Ear yield: 102%
  Green weight: 108%
  Height: 105%
Corn [4]; pre-emergent, 0.1 kg/hectare
  effectiveness in pre-emergent treatment (in words): effective even in a dosage of 0.1 kg/hectare
Corn [4]; [11]
  Ear yield: 118%
  Green weight: 127%
  Height: 121%
Corn [4]; [12]
  Ear yield: 116%
  Green weight: 135%
  Height: 127%
Corn [4]; [13]
  Ear yield: 107%
  Green weight: 115%
  Height: 115%
Green pepper; 0.1 kg/ha
  Green weight in relation to the controls: 95%
Green pepper; 0.2 kg/ha
  Green weight in relation to the controls: 140%
Corn [5]; Table 3
  corn higher by (in comparison with the two controls): 27%
  ear yield greater by (in comparison with the two controls): 20%
  green weight higher by (in comparison with the two controls): 25%
Corn [5]; [14]
  Ear yield: 120%
  Green weight: 125%
  Height: 127%
[6]
  effect on houseflies compared with dichlorphon (in words): approximately the same effect as dichlorphon
Barley; 0.1 kg/ha
  Green weight in relation to the controls: 120%
Barley; 0.2 kg/ha
  Green weight in relation to the controls: 105%
Bean; 0.1 kg/ha
  Green weight in relation to the controls: 110%
Bean; 0.2 kg/ha
  Green weight in relation to the controls: 135%
Corn [7]; [15]
  14th day Green weight: 152%
  14th day Height: 143%
Corn [7]; [16]
  28th day Green weight: 154%
  28th day Height: 148%
Corn [7]; dressed corn seeds, greenhouse, related to number of seeds sown
  Germination: 95%
[8]; 250 ppm
  Activity: 70.4%
  Development: 29.6%
[8]; 500 ppm
  Activity: 100.0%
  Development: 0%
[8]; 1000 ppm
  Activity: 100.0%
  Development: 0%
